The test system of data set [1] is human neuroblastoma cell lines SH-SY5Y treated with 1-methyl-4-phenylpyridinium (MPP+). Put plainly: Improvement of mitochondrial function (Alamar Blue mitochondrial oxidation reduction activity) in MPP+-treated SH-SY5Y cells. Type of data set: cell-based. As to conditions: 1.5 mM MPP+, relative to cells in DMSO alone = 100%, read-out: Fluorescence Intensity (%); for activity at 0.01 µg/mL: compound 0.01 μg/ml; for activity at 0.03 µg/mL: compound 0.03 μg/ml; for activity at 0.1 µg/mL: compound 0.1 μg/ml; for activity at 0.3 µg/mL: compound 0.3 μg/ml; for activity at 1 µg/mL: compound 1 μg/ml. As for the experimental part:
In human neuroblastoma cell lines SH-SY5Y in which mitochondrial function was damaged by MPP^+ treatment (Bollimuntha S. et al., J Biol Chem, 280, 2132-2140 (2005) and Shang T. et al., J Biol Chem, 280, 34644-34653 (2005)), the improvement of mitochondrial function was evaluated on the basis of the measurement value for mitochondrial oxidation reduction activity using Alamar Blue fluorescent dye after the compound addition (Nakai M. et al, Exp Neurol, 179, 103-110 (2003)).
The human neuroblastoma cell lines SH-SY5Y were cultured in Dulbecco's Modified Eagle's Medium containing 10% fetal bovine serum (DMEM containing 50 units/ml penicillin and 50 μg/ml streptomycin as antibiotics) at 37° C. in the presence of 5% carbon dioxide. Cells were scattered on a poly-D-lysine-coated 96-well black plate at a concentration of 3−6×10^4 cells/cm^2 (medium amount: 100 μl/well) and cultured in the medium for two days. Further, the medium was changed to DMEM containing a 1% N2 supplement (N2-DMEM) or to a medium (100 μl/well) in which 1.5 mM MPP^+ was dissolved. The cells were cultured therein for 39 to 48 hours, and then subjected to a mitochondrial oxidation reduction activity measurement system. A sample compound that had been previously dissolved in dimethyl sulfoxide (DMSO) was diluted with N2-DMEM and added in a volume of 10 μl/well 24 hours before the activity measurement (final compound concentration: 0.01 to 1 μg/ml).
After removal of the medium by suction, a balanced salt solution containing 10% Alamar Blue (154 mM sodium chloride, 5.6 mM potassium chloride, 2.3 mM calcium chloride, 1.0 mM magnesium chloride, 3.6 mM sodium hydrogen carbonate, 5 mM glucose, 5 mM HEPES, pH 7.2) was added in a volume of 100 μl/well, and reacted in an incubator at 37° C. for 1 hour. The fluorescent intensity was detected using a fluorescence detector (a product of Hamamatsu Photonics K.K., excitation wavelength: 530 nm, measurement wavelength: 580 nm) to thereby measure the mitochondrial oxidation reduction activity.
The fluorescent intensity of the well of the cells cultured in a medium containing MPP^+ and each of the sample compounds was relatively evaluated based on the 100% fluorescent intensity of the well of the cells cultured in a medium containing DMSO alone (final concentration: 0.1%).
In general terms: The colour change of resazurin is a common sign of viable cells or microbes.

Molecules are shown by their SMILES.

As to `CCn1cc(-c2ccc(OC)cc2)c(=O)c2ccc(OC)cc21` [Example 2, 1-Ethyl-7-methoxy-3-(4-methoxyphenyl)-1H-quinolin-4-one], the melting point (in general, the temperature of the solid-liquid transition) fell in the range of 129 to 131 °C. Besides, in data set [1], the activity at 0.01 µg/mL worked out at 71%, the activity at 0.03 µg/mL worked out at 73%, the activity at 0.1 µg/mL was 74% and the activity at 0.3 µg/mL was determined as 77%. In addition, the activity at 1 µg/mL in data set [1] was 81%.

In turn, `CCCOc1cccc2c(=O)c(-c3ccc(OC)cc3)c[nH]c12` [Example 3, 3-(4-Methoxyphenyl)-8-propoxy-1H-quinolin-4-one] returned a melting point of 231 to 233 °C. For the same molecule, in data set [1], the activity at 0.01 µg/mL was 68%, the activity at 0.03 µg/mL was determined as 77%, the activity at 0.1 µg/mL came out at 77% and the activity at 0.3 µg/mL amounted to 83%. Also, the activity at 1 µg/mL in data set [1] stood at 67%.

Turning to `CCCOc1ccc(OC)c2c(=O)c(-c3ccc(OC)cc3)c[nH]c12` [Example 13, 5-Methoxy-3-(4-methoxyphenyl)-8-propoxy-1H-quinolin-4-one], the melting point lay in the range of 223 to 224 °C. Also, in data set [1], the activity at 0.01 µg/mL came out at 56%, the activity at 0.03 µg/mL was 65%, the activity at 0.1 µg/mL was 74% and the activity at 0.3 µg/mL was determined as 69%. Besides, the activity at 1 µg/mL in data set [1] was 62%.

`COc1ccc(-c2c[nH]c3c(Oc4ccccc4)cccc3c2=O)cc1` [Example 18, 3-(4-Methoxyphenyl)-8-phenoxy-1H-quinolin-4-one] came in with a melting point of 250 to 251 °C. Moreover, in data set [1], the activity at 0.01 µg/mL amounted to 29%, the activity at 0.03 µg/mL stood at 45%, the activity at 0.1 µg/mL amounted to 44% and the activity at 0.3 µg/mL turned out to be 47%. Besides, in data set [1], the activity at 1 µg/mL is 30%.

In turn, `CCCOc1ccc(C)c2c(=O)c(-c3ccc(OC)cc3OC)c[nH]c12` [Example 20, 3-(2,4-Dimethoxyphenyl)-5-methyl-8-propoxy-1H-quinolin-4-one] gave a melting point of 193 to 194 °C. Besides, in data set [1], the activity at 0.01 µg/mL stood at 65%, the activity at 0.03 µg/mL was determined as 67%, the activity at 0.1 µg/mL is 74% and the activity at 0.3 µg/mL stood at 78%. The activity at 1 µg/mL in data set [1] was 77%.

`CCCOc1ccc(OC)c2c(=O)c(-c3ccc(OC)cc3OC)c[nH]c12` [Example 21, 3-(2,4-Dimethoxyphenyl)-5-methoxy-8-propoxy-1H-quinolin-4-one]: the melting point lay in the range of 113 to 114 °C. For the same molecule, in data set [1], the activity at 0.01 µg/mL stood at 65%, the activity at 0.03 µg/mL was 68%, the activity at 0.1 µg/mL turned out to be 77% and the activity at 0.3 µg/mL is 82%. The activity at 1 µg/mL in data set [1] was 84%.

For `COc1ccc(-c2c[nH]c3c(OCC4CC4)ccc(C)c3c2=O)c(F)c1` [Example 79, 8-Cyclopropylmethoxy-3-(2-fluoro-4-methoxyphenyl)-5-methyl-1H-quinolin-4-one], the melting point lay in the range of 198 to 199 °C.

As for `CCCOc1ccc(C)c2[nH]cc(-c3ccc(OC)cc3)c(=O)c12` [Example 80, 3-(4-Methoxyphenyl)-8-methyl-5-propoxy-1H-quinolin-4-one], the melting point lay in the range of 156 to 158 °C.

Regarding `CCCOc1ccc(Cl)c2[nH]cc(-c3ccc(OC)cc3)c(=O)c12` [Example 81, 8-Chloro-3-(4-methoxyphenyl)-5-propoxy-1H-quinolin-4-one], the melting point lay in the range of 145 to 147 °C.

Regarding `COc1ccc(-c2c[nH]c3c(N4CCCCCC4)ccc(C)c3c2=O)cc1` [Example 84, 8-Azepan-1-yl-3-(4-methoxyphenyl)-5-methyl-1H-quinolin-4-one], the melting point fell in the range of 249 to 250 °C.

Take `CCCOc1cc(-n2ccnc2)cc2c(=O)c(-c3ccc(OC)cc3)c[nH]c12` [Example 85, 6-Imidazol-1-yl-3-(4-methoxyphenyl)-8-propoxy-1H-quinolin-4-one]: the melting point was 236 to 237 °C.

Turning to `COc1ccc(-c2c[nH]c3c(OCC4CC4)ccc(OC)c3c2=O)cc1` [Example 88, 8-Cyclopropylmethoxy-5-methoxy-3-(4-methoxyphenyl)-1H-quinolin-4-one], the melting point is 212 to 214 °C.

Molecule `COc1ccc(-c2c[nH]c3c(C(=O)N(C)C)ccc(C)c3c2=O)cc1` [Example 89, 3-(4-Methoxyphenyl)-5-methyl-4-oxo-1,4-dihydroquinolin-8-carboxylic acid dimethylamide] had a melting point of 158 to 160 °C.

`COc1ccc(-c2c[nH]c3c(C(=O)N4CCCC4)ccc(C)c3c2=O)cc1` [Example 90, 3-(4-Methoxyphenyl)-5-methyl-8-(pyrrolidine-1-carbonyl)-1H-quinolin-4-one] gave a melting point of 193 to 195 °C.

On to `COc1ccc(-c2c[nH]c3c(OC4CCCC4)ccc(C)c3c2=O)cc1` [Example 91, 8-Cyclopentyloxy-3-(4-methoxyphenyl)-5-methyl-1H-quinolin-4-one], for which the melting point lay within 237 to 239 °C.

As to `CCCOc1ccc(C)c2c(=O)c(-c3ccc(OC)cc3)cn(CC3CC3)c12` [Example 92, 1-Cyclopropylmethyl-3-(4-methoxyphenyl)-5-methyl-8-propoxy-1H-quinolin-4-one], the melting point is 100 to 101 °C.

Regarding `COc1ccc(-c2c[nH]c3c(OC4CCCC4)ccc(OC)c3c2=O)cc1` [Example 93, 8-Cyclopentyloxy-5-methoxy-3-(4-methoxyphenyl)-1H-quinolin-4-one], the melting point was in the range of 213 to 215 °C.

`CCOc1ccc(OCC)c2c(=O)c(-c3ccc(F)cc3)c[nH]c12` [Example 94, 5,8-Diethoxy-3-(4-fluorophenyl)-1H-quinolin-4-one]: the melting point lay within 232 to 234 °C.

As for `COc1ccc(-c2c[nH]c3c(-c4ccsc4)ccc(C)c3c2=O)cc1` [Example 97, 3-(4-Methoxyphenyl)-5-methyl-8-thiophen-3-yl-1H-quinolin-4-one], the melting point was in the range of 189 to 190 °C.

`COc1ccc(-c2c[nH]c3c(-c4cc5ccccc5s4)ccc(C)c3c2=O)cc1` [Example 98, 8-Benzo[b]thiophen-2-yl-3-(4-methoxyphenyl)-5-methyl-1H-quinolin-4-one]: the melting point is 229 to 231 °C.

`COc1ccc(-c2c[nH]c3c(N(C)C4CCCCC4)ccc(C)c3c2=O)cc1` [Example 99, 8-(N-Cyclohexyl-N-methylamino)-3-(4-methoxyphenyl)-5-methyl-1H-quinolin-4-one]: the melting point fell in the range of 186 to 187 °C.

In turn, `COc1ccc(-c2c[nH]c3c(-c4cccs4)ccc(C)c3c2=O)cc1` [Example 100, 3-(4-Methoxyphenyl)-5-methyl-8-thiophen-2-yl-1H-quinolin-4-one] registered a melting point of 197 to 199 °C.

In turn, `COc1ccc(-c2c[nH]c3c(N(C)CC(C)C)ccc(C)c3c2=O)cc1` [Example 102, 8-(N-Isobutyl-N-methyl-amino)-3-(4-methoxyphenyl)-5-methyl-1H-quinolin-4-one] gave a melting point of 111 to 113 °C.

Take `COc1ccc(-c2c[nH]c3c(N(C)C(C)C)ccc(C)c3c2=O)cc1` [Example 103, 8-(N-Isopropyl-N-methylamino)-3-(4-methoxyphenyl)-5-methyl-1H-quinolin-4-one]: the melting point was in the range of 186 to 187 °C.

Consider `COc1ccc(OC2CCCC2)c2[nH]cc(-c3ccc(Cl)cc3Cl)c(=O)c12` [Example 104, 8-Cyclopentyloxy-3-(2,4-dichlorophenyl)-5-methoxy-1H-quinolin-4-one], for which the melting point was 266 to 268 °C.

For `COc1ccc(OCC2CC2)c2[nH]cc(-c3ccc(Cl)cc3Cl)c(=O)c12` [Example 105, 8-Cyclopropylmethoxy-3-(2,4-dichlorophenyl)-5-methoxy-1H-quinolin-4-one], the melting point was in the range of 254 to 256 °C.

Turning to `O=c1c(-c2ccc(Cl)cc2Cl)c[nH]c2c(OC3CCCC3)ccc(O)c12` [Example 106, 8-Cyclopentyloxy-3-(2,4-dichlorophenyl)-5-hydroxy-1H-quinolin-4-one], the melting point lay within 154 to 155 °C.

In the case of `O=c1c(-c2ccc(Cl)cc2Cl)c[nH]c2c(OCC3CC3)ccc(O)c12` [Example 107, 8-Cyclopropylmethoxy-3-(2,4-dichlorophenyl)-5-hydroxy-1H-quinolin-4-one], the melting point was in the range of 163 to 165 °C.

The record behind these values is patent US20130217678A1, “PHARMACEUTICAL AGENT COMPRISING QUINOLONE COMPOUND” (OTSUKA PHARMACEUTICAL CO., LTD., priority 2008, published 2013).
